Blank lines part the entries; values can stand above or below the molecule they belong to.
Columns and labels:
ADGRF1 [1] = assay: Identification of phospholipid ligands by LC–MS/MS; format: binding, human
Protocol: The identification of phospholipids specifically bound to ADGRF1 was performed as previously described[33],[50] with minor modifications. In brief, ADGRF1 and control ADGRD1 protein were reduced with 5 mM TCEP at 25 °C for 30 min and alkylated with 20 mM idoacetamide at 25 °C for 30 min. Then the protein samples were digested with trypsin (Promega) at an enzyme-to-protein ratio of 1:50 (w/w) at 37 °C overnight. The digested proteins were dried in a vacuum concentrator and then extracted with 400 μl of ice-cold methanol:water (9:1, v/v) by vortex and sonication. After centrifugation at 12,000g for 15 min at 4 °C, the supernatants were collected and lyophilized under vacuum. The lipid extracts were resuspended in methanol:chloroform (9:1, v/v) to an equivalent concentration of 2 μM. Samples were analysed on a Q Exactive mass spectrometer (Thermo Fisher Scientific) operating in the positive ion mode coupled to a Waters Acquity UPLC system (Waters). […] The specificity of lipid binding to ADGRF1 was assessed by the ratio of EIC peak areas for each lipid in the ADGRF1 versus the control sample. […]

ADGRF1 [2] = settings: cited from earlier work
[3] = system: neurogenesis, neuritogenesis and synaptogenesis; settings: ref [35]; cited from earlier work
[4] = target: T1, ADGRF1 (GPR110), residues V251–K860 (ADGRF1-construct 1) (human) (UniProt Q5T601)
T1 sequence: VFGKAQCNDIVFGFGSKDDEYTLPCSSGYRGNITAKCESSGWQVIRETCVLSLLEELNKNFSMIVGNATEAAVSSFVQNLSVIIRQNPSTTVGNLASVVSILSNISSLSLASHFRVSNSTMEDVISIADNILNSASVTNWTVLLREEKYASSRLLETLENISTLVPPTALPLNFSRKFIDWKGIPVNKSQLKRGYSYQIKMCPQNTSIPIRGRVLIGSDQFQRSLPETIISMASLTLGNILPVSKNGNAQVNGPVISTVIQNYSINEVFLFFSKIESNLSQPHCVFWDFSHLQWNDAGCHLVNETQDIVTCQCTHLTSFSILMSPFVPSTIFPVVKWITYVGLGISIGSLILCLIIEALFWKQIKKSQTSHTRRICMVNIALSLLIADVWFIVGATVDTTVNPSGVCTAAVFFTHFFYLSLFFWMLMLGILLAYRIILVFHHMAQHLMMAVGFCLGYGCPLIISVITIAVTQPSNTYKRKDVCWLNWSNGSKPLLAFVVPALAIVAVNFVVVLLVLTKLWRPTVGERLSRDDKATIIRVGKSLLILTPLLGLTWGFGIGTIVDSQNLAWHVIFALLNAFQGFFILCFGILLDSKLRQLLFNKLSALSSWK

[5] = target: T2, ADGRD1 (GPR133), residues T545–T827 (ADGRD1-construct) (human) (UniProt Q6QNK2)
T2 sequence: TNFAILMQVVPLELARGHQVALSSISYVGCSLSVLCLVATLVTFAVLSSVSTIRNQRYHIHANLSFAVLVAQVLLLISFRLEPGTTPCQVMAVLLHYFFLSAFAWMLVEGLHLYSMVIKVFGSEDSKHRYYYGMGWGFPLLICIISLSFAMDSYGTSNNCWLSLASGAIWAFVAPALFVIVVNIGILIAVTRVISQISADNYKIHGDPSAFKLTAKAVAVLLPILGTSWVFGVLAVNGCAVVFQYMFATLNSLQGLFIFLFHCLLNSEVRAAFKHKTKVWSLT

Molecule: CCCCCCCCCCCCCCCC(=O)OC[C@@H](O)COP(=O)([O-])OCC[N+](C)(C)C [LPC 16:0]
- specific binding to ADGRF1 (lipidomics) (ADGRF1 [1]; ADGRD1 as control, specific binder: mean EIC ratio > 2 and P < 0.05, n = 3): bound specifically to ADGRF1
- EIC peak ratio, ADGRF1 versus ADGRD1 (mean) (ADGRF1 [1]; ADGRD1 protein as control, methanol:water lipid extract, P < 0.05, three independent experiments): > 2

Molecule: CC/C=C\C/C=C\C/C=C\C/C=C\C/C=C\C/C=C\CCC(=O)NCCO [synaptamide, N-docosahexaenoylethanolamine]
- stalk dependence of ADGRF1 activation (ADGRF1 [2]; believed to act through the extracellular GAIN domain, ref [36]): activates the receptor in a stalk-independent manner
- agonism at ADGRF1 (ADGRF1 [2]; ref [35]): endogenous small-molecule agonist for ADGRF1
- neurogenesis, neuritogenesis and synaptogenesis [3]: promotes neurogenesis, neuritogenesis and synaptogenesis

Results, then the molecule that gave them:

- G protein activation of wild-type ADGRF1 in HEK293F cells (BRET assay with TRUPATH biosensors): EC50 of pD1 against that of pF1 [4]: 2 fold
Molecule: TNFAILMQVVPLE [synthetic stalk peptide of ADGRD1 (pD1)]

- fold decrease in G protein activation of wild-type ADGRD1 in HEK293F cells (BRET assay with TRUPATH biosensors): potency of pF1 against that of pD1 [5]: 59 fold
Molecule: TSFSILMSPFVP [synthetic stalk peptide of ADGRF1 (pF1)]

Source: PMC9046087, “Structural basis of tethered agonism of the adhesion GPCRs ADGRD1 and ADGRF1” (Nature, 2022)
